Where a SMILES comes first, the peptide text is derived from it. Bridges are numbered along the chain shown (N, C = ends). [ ]: non-standard residue; d: D form. The star is where a group is joined. hPhe(3-Cl-4-CF3) = N[C@@H](CCc1ccc(C(F)(F)F)c(Cl)c1)C(=O)O; NPrPhe(4-CF3) = CCCN[C@@H](Cc1ccc(C(F)(F)F)cc1)C(=O)O; NMeGly(cPent) = CN[C@H](C(=O)O)C1CCCC1; NEtLeu = CCN[C@@H](CC(C)C)C(=O)O; NMeD = CN[C@@H](CC(=O)O)C(=O)O; NMeL = CN[C@@H](CC(C)C)C(=O)O; Morpholide = C1CN(*)CCO1; NMeA = CN[C@@H](C)C(=O)O; dNMeA = CN[C@H](C)C(=O)O; Ac5c = NC1(C(=O)O)CCCC1; Aze = O=C(O)[C@@H]1CCN1; NEtG = CCNCC(=O)O; Sar = CNCC(=O)O
Assays:
[1] = target: GDP-bound KRAS wild-type protein (Homo sapiens, UniProt P01116); test: Binding to KRAS by surface plasmon resonance (SPR), Single Cycle Kinetics; details: SPR Single Cycle Kinetics, GDP-bound KRAS wild-type protein, 1:1 binding model; read-out: KRAS KD
[2] = target: GDP-bound NRAS wild-type protein (Homo sapiens, UniProt P01111); test: Binding to NRAS by surface plasmon resonance (SPR), Single Cycle Kinetics; details: SPR, GDP-bound NRAS wild-type protein vs GDP-bound KRAS wild-type protein
[3] = target: GDP-bound HRAS wild-type protein (Homo sapiens, UniProt P01112); test: Binding to HRAS by surface plasmon resonance (SPR), Single Cycle Kinetics; details: SPR, GDP-bound HRAS wild-type protein vs GDP-bound KRAS wild-type protein
Chain of GDP-bound HRAS wild-type protein (P01112 whole entry): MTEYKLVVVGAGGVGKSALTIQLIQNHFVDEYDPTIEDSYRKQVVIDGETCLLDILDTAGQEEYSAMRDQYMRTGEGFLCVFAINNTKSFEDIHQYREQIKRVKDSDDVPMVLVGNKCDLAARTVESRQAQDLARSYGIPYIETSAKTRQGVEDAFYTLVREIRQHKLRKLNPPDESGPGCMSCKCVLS

Chain of GDP-bound KRAS wild-type protein (P01116 whole entry): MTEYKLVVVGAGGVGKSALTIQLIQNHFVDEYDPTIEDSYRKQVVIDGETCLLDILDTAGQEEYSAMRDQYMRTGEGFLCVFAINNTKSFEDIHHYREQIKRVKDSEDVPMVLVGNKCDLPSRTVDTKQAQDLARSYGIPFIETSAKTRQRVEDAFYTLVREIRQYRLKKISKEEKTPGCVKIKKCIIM
Chain of GDP-bound NRAS wild-type protein (P01111 whole entry): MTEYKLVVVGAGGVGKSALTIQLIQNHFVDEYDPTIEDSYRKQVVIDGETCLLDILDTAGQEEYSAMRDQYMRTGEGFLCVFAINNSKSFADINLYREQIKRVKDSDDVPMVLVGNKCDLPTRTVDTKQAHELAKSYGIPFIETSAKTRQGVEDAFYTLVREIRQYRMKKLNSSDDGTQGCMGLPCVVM

| Compound | Kd [1] | NRAS/KRAS (ratio of KD value for NRAS to KD value for KRAS) [2] | HRAS/KRAS (ratio of KD value for HRAS to KD value for KRAS) [3] |
| --- | --- | --- | --- |
| CCCN1C(=O)CN(C)C(=O)CN(C)C(=O)[C@H]([C@@H](C)CC)NC(=O)[C@H](CC(C)C)N(C)C(=O)C[C@@H](C(=O)N2CCOCC2)N(C)C(=O)[C@H](C2CCCC2)N(C)C(=O)C2(CCCC2)NC(=O)CN(CC)C(=O)[C@H](CCc2ccc(C(F)(F)F)c(Cl)c2)NC(=O)CN(C)C(=O)[C@@H]1Cc1ccc(C(F)(F)F)cc1 [PP0144] ([NMeL]I[Sar][Sar][NPrPhe(4-CF3)][Sar][hPhe(3-Cl-4-CF3)][NEtG][Ac5c][NMeGly(cPent)][NMeD]-Morpholide; lactam N-11) | 0.24 nM | B (a compound having 3 or more and less than 10 is denoted as B) | C (A compound having a KD ratio of 0.1 or more and less than 3 is denoted as C) |
| CCCN1C(=O)CN(C)C(=O)CN(CC)C(=O)[C@H]([C@@H](C)CC)NC(=O)[C@H](CC(C)C)N(C)C(=O)C[C@@H](C(=O)N2CCOCC2)N(C)C(=O)[C@H](C2CCCC2)N(C)C(=O)C2(CCCC2)NC(=O)[C@@H]2CCCN2C(=O)[C@H](CCc2ccc(C(F)(F)F)c(Cl)c2)NC(=O)CN(C)C(=O)[C@@H]1Cc1ccc(C(F)(F)F)cc1 [PP0145] ([NMeL]I[NEtG][Sar][NPrPhe(4-CF3)][Sar][hPhe(3-Cl-4-CF3)]P[Ac5c][NMeGly(cPent)][NMeD]-Morpholide; lactam N-11) | 0.5 nM | B (a compound having 3 or more and less than 10 is denoted as B) | B (a compound having 3 or more and less than 10 is denoted as B) |
| CCCN1C(=O)CN(C)C(=O)CN(C)C(=O)[C@H]([C@@H](C)CC)NC(=O)[C@H](CC(C)C)N(C)C(=O)C[C@@H](C(=O)N2CCOCC2)NC(=O)[C@H](C2CCCC2)N(C)C(=O)C2(CCCC2)NC(=O)[C@@H]2CCCN2C(=O)[C@H](CCc2ccc(C(F)(F)F)c(Cl)c2)NC(=O)CN(C)C(=O)[C@@H]1Cc1ccc(C(F)(F)F)cc1 [PP0146] ([NMeL]I[Sar][Sar][NPrPhe(4-CF3)][Sar][hPhe(3-Cl-4-CF3)]P[Ac5c][NMeGly(cPent)]D-Morpholide; lactam N-11) | 0.42 nM | B (a compound having 3 or more and less than 10 is denoted as B) | B (a compound having 3 or more and less than 10 is denoted as B) |
| CCCN1C(=O)CN(C)C(=O)CN(C)C(=O)[C@H]([C@@H](C)CC)NC(=O)[C@H](CC(C)C)N(C)C(=O)C[C@@H](C(=O)N2CCOCC2)N(C)C(=O)[C@H](C2CCCC2)N(C)C(=O)C2(CCCC2)NC(=O)[C@@H]2CCCN2C(=O)[C@H](CCc2ccc(C(F)(F)F)c(Cl)c2)NC(=O)[C@@H](C)N(C)C(=O)[C@@H]1Cc1ccc(C(F)(F)F)cc1 [PP0148] ([NMeL]I[Sar][Sar][NPrPhe(4-CF3)][dNMeA][hPhe(3-Cl-4-CF3)]P[Ac5c][NMeGly(cPent)][NMeD]-Morpholide; lactam N-11) | 3.4 nM | B (a compound having 3 or more and less than 10 is denoted as B) | B (a compound having 3 or more and less than 10 is denoted as B) |
| CCCN1C(=O)CN(C)C(=O)CN(C)C(=O)[C@H]([C@@H](C)CC)NC(=O)[C@H](CC(C)C)N(C)C(=O)C[C@@H](C(=O)N2CCOCC2)N(C)C(=O)[C@H](C2CCCC2)N(C)C(=O)[C@@H](C)NC(=O)[C@@H]2CCCN2C(=O)[C@H](CCc2ccc(C(F)(F)F)c(Cl)c2)NC(=O)CN(C)C(=O)[C@@H]1Cc1ccc(C(F)(F)F)cc1 [PP0150] ([NMeL]I[Sar][Sar][NPrPhe(4-CF3)][Sar][hPhe(3-Cl-4-CF3)]P[dA][NMeGly(cPent)][NMeD]-Morpholide; lactam N-11) | 1.7 nM | B (a compound having 3 or more and less than 10 is denoted as B) | C (A compound having a KD ratio of 0.1 or more and less than 3 is denoted as C) |
| CCCN1C(=O)[C@@H]2CCN2C(=O)[C@H](C)N(C)C(=O)[C@H]([C@@H](C)CC)NC(=O)[C@H](CC(C)C)N(CC)C(=O)C[C@@H](C(=O)N2CCOCC2)N(C)C(=O)[C@H](C2CCCC2)N(C)C(=O)C2(CCCC2)NC(=O)[C@@H]2CCCN2C(=O)[C@H](CCc2ccc(C(F)(F)F)c(Cl)c2)NC(=O)CN(C)C(=O)[C@@H]1Cc1ccc(C(F)(F)F)cc1 [PP0151] ([NEtLeu]I[NMeA][Aze][NPrPhe(4-CF3)][Sar][hPhe(3-Cl-4-CF3)]P[Ac5c][NMeGly(cPent)][NMeD]-Morpholide; lactam N-11) | 0.5 nM | C (A compound having a KD ratio of 0.1 or more and less than 3 is denoted as C) | C (A compound having a KD ratio of 0.1 or more and less than 3 is denoted as C) |

Reference: patent US20240158446A1, “CYCLIC COMPOUND HAVING SELECTIVE INHIBITORY ACTION ON KRAS OVER HRAS AND NRAS” (CHUGAI SEIYAKU KABUSHIKI KAISHA, priority 2021, published 2024)
